Measurements: patent US20250179061A1 (SIRONAX LTD., priority 2022, published 2025)
pIC50: −log10 of the molar value.

Test system: HT-29 cells
Assay: HT-29 necroptosis cell viability assay (TNF-α/SMAC mimetic/zVAD-FMK, CellTiter-Glo)
Format: cell-based
Details: Homo sapiens, HT-29, HT-29 necroptosis cell viability, IC50 class symbols; read-out: Activity
In short: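 HT-29 cells (~5,000/well, overnight) in FBS-free McCoy's 5A with TNF-α 10 ng/ml, SMAC mimetic 6 μM and zVAD-FMK 10 μM plus 10-point 1:3 compound titration, 20 h at 37°C. ATP measured by CellTiter-Glo luminescence; IC50 as geometric mean of duplicates.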

Question: With `O=c1n(Cc2c(F)cccc2F)cnn1-c1ccc(Oc2ccnnc2)cc1` [Example 431, 4-(2,6-difluorobenzyl)-2-(4-(pyridazin-4-yloxy)phenyl)-2,4-dihydro-3H-1,2,4-triazol-3-one] as the molecule, how does the pIC50 read?
Answer: 5.00 to 6.00

Question: `O=c1n(Cc2c(F)cccc2F)cnn1-c1ccc(Oc2ccncc2Br)cc1` [Example 432, 2-(4-((3-bromopyridin-4-yl)oxy)phenyl)-4-(2,6-difluorobenzyl)-2,4-dihydro-3H-1,2,4-triazol-3-one] was tested. Which pIC50 did it give?
Answer: > 7.00

Question: How did the pIC50 turn out when `O=c1n(Cc2c(F)cccc2F)cnn1-c1ccc(Oc2ccccc2[N+](=O)[O-])cc1` [Example 433, 4-(2,6-difluorobenzyl)-2-(4-(2-nitrophenoxy)phenyl)-2,4-dihydro-3H-1,2,4-triazol-3-one] was run?
Answer: 6.00 to 7.00

Question: `O=c1n(Cc2c(F)cccc2F)cnn1-c1ccc(Oc2c(Cl)cccc2[N+](=O)[O-])cc1` [Example 434, 2-(4-(2-chloro-6-nitrophenoxy)phenyl)-4-(2,6-difluorobenzyl)-2,4-dihydro-3H-1,2,4-triazol-3-one] was tested. Which pIC50 did it give?
Answer: > 7.00

Question: `N#Cc1ccc(Oc2ccc(-n3ncn(Cc4c(F)cccc4F)c3=O)cc2)cc1` [Example 435, 4-(4-(4-(2,6-difluorobenzyl)-5-oxo-4,5-dihydro-1H-1,2,4-triazol-1-yl)phenoxy)benzonitrile] was tested. Which pIC50 did it give?
Answer: 6.00 to 7.00

Question: `COc1cc(Oc2ccc(-n3ncn(Cc4c(F)cccc4F)c3=O)cc2)cc(OC)n1` [Example 436, 4-(2,6-difluorobenzyl)-2-(4-((2,6-dimethoxypyridin-4-yl)oxy)phenyl)-2,4-dihydro-3H-1,2,4-triazol-3-one] was tested. Which pIC50 did it give?
Answer: 6.00 to 7.00

Question: `N#Cc1cccc(Oc2ccc(-n3ncn(Cc4c(F)cccc4F)c3=O)cc2)c1` [Example 437, 3-(4-(4-(2,6-difluorobenzyl)-5-oxo-4,5-dihydro-1H-1,2,4-triazol-1-yl)phenoxy)benzonitrile] was tested. Which pIC50 did it give?
Answer: > 7.00

Question: How did the pIC50 turn out when `O=c1n(Cc2c(F)cccc2F)cnn1-c1ccc(Oc2ccncc2)cc1` [Example 438, 4-(2,6-difluorobenzyl)-2-(4-(pyridin-4-yloxy)phenyl)-2,4-dihydro-3H-1,2,4-triazol-3-one] was run?
Answer: 6.00 to 7.00

Question: With `Nc1ccccc1Oc1ccc(-n2ncn(Cc3c(F)cccc3F)c2=O)cc1` [Example 439, 2-(4-(2-aminophenoxy)phenyl)-4-(2,6-difluorobenzyl)-2,4-dihydro-3H-1,2,4-triazol-3-one] as the molecule, how does the pIC50 read?
Answer: > 7.00

Question: How did the pIC50 turn out when `Nc1cccc(Cl)c1Oc1ccc(-n2ncn(Cc3c(F)cccc3F)c2=O)cc1` [Example 440, 2-(4-(2-amino-6-chlorophenoxy)phenyl)-4-(2,6-difluorobenzyl)-2,4-dihydro-3H-1,2,4-triazol-3-one] was run?
Answer: > 7.00

Question: `Nc1cnc(Cl)cc1Oc1ccc(-n2ncn(Cc3c(F)cccc3F)c2=O)cc1` [Example 441, 2-(4-((5-amino-2-chloropyridin-4-yl)oxy)phenyl)-4-(2,6-difluorobenzyl)-2,4-dihydro-3H-1,2,4-triazol-3-one] was tested. Which pIC50 did it give?
Answer: > 7.00

Question: How did the pIC50 turn out when `Nc1cccc(F)c1Oc1ccc(-n2ncn(Cc3c(F)cccc3F)c2=O)cc1` [Example 442, 2-(4-(2-amino-6-fluorophenoxy)phenyl)-4-(2,6-difluorobenzyl)-2,4-dihydro-3H-1,2,4-triazol-3-one] was run?
Answer: > 7.00

Question: How did the pIC50 turn out when `Cn1ncc(N)c1Oc1ccc(-n2ncn(Cc3c(F)cccc3F)c2=O)cc1` [Example 443, 2-(4-((4-amino-1-methyl-1H-pyrazol-5-yl)oxy)phenyl)-4-(2,6-difluorobenzyl)-2,4-dihydro-3H-1,2,4-triazol-3-one] was run?
Answer: 6.00 to 7.00

Question: How did the pIC50 turn out when `Cc1nc(C(N)=O)sc1Oc1ccc(-n2nc3n(c2=O)[C@H](c2ccccc2)CO3)cc1F` [Example 445, (R)-5-(2-fluoro-4-(3-oxo-5-phenyl-5,6-dihydrooxazolo[2,3-c][1,2,4]triazol-2(3H)-yl)phenoxy)-4-methylthiazole-2-carboxamide] was run?
Answer: > 7.00

Question: With `Cc1nc(C(O)C(F)F)sc1Oc1ccc(-n2ncn(Cc3c(F)cccc3F)c2=O)cc1F` (centres unmarked) [Example 446, 2-(4-((2-(2,2-difluoro-1-hydroxyethyl)-4-methylthiazol-5-yl)oxy)-3-fluorophenyl)-4-(2,6-difluorobenzyl)-2,4-dihydro-3H-1,2,4-triazol-3-one] as the molecule, how does the pIC50 read?
Answer: > 7.00

Question: `Cc1nc(C(N)C(F)F)sc1Oc1ccc(-n2ncn(Cc3c(F)cccc3F)c2=O)cc1F` (centres unmarked) [Example 447, 2-(4-((2-(1-amino-2,2-difluoroethyl)-4-methylthiazol-5-yl)oxy)-3-fluorophenyl)-4-(2,6-difluorobenzyl)-2,4-dihydro-3H-1,2,4-triazol-3-one] was tested. Which pIC50 did it give?
Answer: > 7.00

Question: How did the pIC50 turn out when `C[C@H]1[C@@H](O)CN1c1cc(Oc2ccc(-n3ncn(Cc4c(F)cccc4F)c3=O)cc2F)c(F)cn1` [Example 448, 4-(2,6-difluorobenzyl)-2-(3-fluoro-4-((5-fluoro-2-((2S,3S)-3-hydroxy-2-methylazetidin-1-yl)pyridin-4-yl)oxy)phenyl)-2,4-dihydro-3H-1,2,4-triazol-3-one] was run?
Answer: > 7.00

Question: `CC(=O)c1nc(C)c(Oc2ccc(-n3ncn(Cc4c(F)cccc4F)c3=O)cc2F)s1` [Example 449, 2-(4-((2-acetyl-4-methylthiazol-5-yl)oxy)-3-fluorophenyl)-4-(2,6-difluorobenzyl)-2,4-dihydro-3H-1,2,4-triazol-3-one] was tested. Which pIC50 did it give?
Answer: > 7.00

Question: How did the pIC50 turn out when `Cc1nc(N2CC(N)(C(F)F)C2)sc1Oc1ccc(-n2ncn(Cc3c(F)cccc3F)c2=O)cc1F` [Example 450, 2-(4-((2-(3-amino-3-(difluoromethyl)azetidin-1-yl)-4-methylthiazol-5-yl)oxy)-3-fluorophenyl)-4-(2,6-difluorobenzyl)-2,4-dihydro-3H-1,2,4-triazol-3-one] was run?
Answer: > 7.00

Question: `Cc1nc(N2CC(C)(N)C2)sc1Oc1ccc(-n2ncn(Cc3c(F)cccc3F)c2=O)cc1F` [Example 451, 2-(4-((2-(3-amino-3-methylazetidin-1-yl)-4-methylthiazol-5-yl)oxy)-3-fluorophenyl)-4-(2,6-difluorobenzyl)-2,4-dihydro-3H-1,2,4-triazol-3-one] was tested. Which pIC50 did it give?
Answer: > 7.00

Question: How did the pIC50 turn out when `Cc1nc(N2CC(N)(CF)C2)sc1Oc1ccc(-n2ncn(Cc3c(F)cccc3F)c2=O)cc1F` [Example 452, 2-(4-((2-(3-amino-3-(fluoromethyl)azetidin-1-yl)-4-methylthiazol-5-yl)oxy)-3-fluorophenyl)-4-(2,6-difluorobenzyl)-2,4-dihydro-3H-1,2,4-triazol-3-one] was run?
Answer: > 7.00

Question: `Cc1nc(N2CC(N)(CF)C2)sc1Cc1ccc(-n2ncn(Cc3c(F)cccc3F)c2=O)cc1F` [Example 453, 2-(4-((2-(3-amino-3-(fluoromethyl)azetidin-1-yl)-4-methylthiazol-5-yl)methyl)-3-fluorophenyl)-4-(2,6-difluorobenzyl)-2,4-dihydro-3H-1,2,4-triazol-3-one] was tested. Which pIC50 did it give?
Answer: > 7.00

Question: `Cc1nc(N2CCC(C)(C#N)C2)sc1Oc1ccc(-n2ncn(Cc3c(F)cccc3F)c2=O)cc1` (centres unmarked) [Example 454, 1-(5-(4-(4-(2,6-difluorobenzyl)-5-oxo-4,5-dihydro-1H-1,2,4-triazol-1-yl)phenoxy)-4-methylthiazol-2-yl)-3-methylpyrrolidine-3-carbonitrile] was tested. Which pIC50 did it give?
Answer: > 7.00

Question: With `Cc1nc(N2CC3(CCN3)C2)sc1Oc1ccc(-n2ncn(Cc3c(F)cccc3F)c2=O)cc1` [Example 455, 4-(2,6-difluorobenzyl)-2-(4-((4-methyl-2-(1,6-diazaspiro[3.3]heptan-6-yl)thiazol-5-yl)oxy)phenyl)-2,4-dihydro-3H-1,2,4-triazol-3-one] as the molecule, how does the pIC50 read?
Answer: > 7.00

Question: With `Cc1nc(N2CC(OC(C)(C)C)C2)sc1Oc1ccc(-n2ncn(Cc3c(F)cccc3F)c2=O)cc1` [Example 456, 2-(4-((2-(3-(tert-butoxy)azetidin-1-yl)-4-methylthiazol-5-yl)oxy)phenyl)-4-(2,6-difluorobenzyl)-2,4-dihydro-3H-1,2,4-triazol-3-one] as the molecule, how does the pIC50 read?
Answer: > 7.00

Question: `Cc1nc(N2CC3(CCO3)C2)sc1Oc1ccc(-n2ncn(Cc3c(F)cccc3F)c2=O)cc1` [Example 457, 4-(2,6-difluorobenzyl)-2-(4-((4-methyl-2-(1-oxa-6-azaspiro[3.3]heptan-6-yl)thiazol-5-yl)oxy)phenyl)-2,4-dihydro-3H-1,2,4-triazol-3-one] was tested. Which pIC50 did it give?
Answer: > 7.00

Question: `Cc1nc(N)sc1Sc1ccc(-n2ncn(Cc3ccccc3)c2=O)cc1` [Example 458, 2-(4-((2-amino-4-methylthiazol-5-yl)thio)phenyl)-4-benzyl-2,4-dihydro-3H-1,2,4-triazol-3-one] was tested. Which pIC50 did it give?
Answer: > 7.00

Question: With `Cc1nc(C(C)(C)O)sc1Oc1ccc(-n2ncn(Cc3c(F)cccc3F)c2=O)cc1F` [Example 462, 4-(2,6-difluorobenzyl)-2-(3-fluoro-4-((2-(2-hydroxypropan-2-yl)-4-methylthiazol-5-yl)oxy)phenyl)-2,4-dihydro-3H-1,2,4-triazol-3-one] as the molecule, how does the pIC50 read?
Answer: > 7.00

Question: How did the pIC50 turn out when `Cc1nc(C(C)(C)O)sc1Oc1ccc(-n2nc3n(c2=O)C(c2ccccc2)CC3)cc1F` (centres unmarked) [Example 463, 2-(3-fluoro-4-((2-(2-hydroxypropan-2-yl)-4-methylthiazol-5-yl)oxy)phenyl)-5-phenyl-2,5,6,7-tetrahydro-3H-pyrrolo[2,1-c][1,2,4]triazol-3-one] was run?
Answer: > 7.00

Question: With `Cc1cccnc1Cn1cnn(-c2ccc(Oc3sc(C(C)(C)O)nc3C)c(F)c2)c1=O` [Example 464, 2-(3-fluoro-4-((2-(2-hydroxypropan-2-yl)-4-methylthiazol-5-yl)oxy)phenyl)-4-((3-methylpyridin-2-yl)methyl)-2,4-dihydro-3H-1,2,4-triazol-3-one] as the molecule, how does the pIC50 read?
Answer: 6.00 to 7.00

Question: How did the pIC50 turn out when `Cc1nc(C(C)(C)O)sc1Oc1ncc(-n2ncn(Cc3c(F)cccc3F)c2=O)cc1F` [Example 465, 4-(2,6-difluorobenzyl)-2-(5-fluoro-6-((2-(2-hydroxypropan-2-yl)-4-methylthiazol-5-yl)oxy)pyridin-3-yl)-2,4-dihydro-3H-1,2,4-triazol-3-one] was run?
Answer: > 7.00

Question: `Cc1nc(C(C)(C)O)sc1Oc1ccc(-n2ncn(Cc3ncccc3Cl)c2=O)cc1F` [Example 466, 4-((3-chloropyridin-2-yl)methyl)-2-(3-fluoro-4-((2-(2-hydroxypropan-2-yl)-4-methylthiazol-5-yl)oxy)phenyl)-2,4-dihydro-3H-1,2,4-triazol-3-one] was tested. Which pIC50 did it give?
Answer: > 7.00
